A value given as a limit tells only on which side of the number the result lay.

These results are taken from patent US8450315B2, “Phosphoinositide 3-kinase inhibitor compounds and methods of use” (Genentech, Inc., priority 2006, dated 2013).

Series [1] deals with human PI3K isoform beta (p110 beta) (Homo sapiens, UniProt P42338). In words: p110 isoform selectivity scintillation proximity assay (SPA), beta isoform. In kind it is biochemical. The following applies: fold potency over beta relative to alpha, calculated from IC50 values (SPA). As for the experimental part: (§1) Binding of Formula Ia and Ib compounds from Tables 1a and 1b to purified preparations of p110 isoforms alpha, beta, delta, and gamma was measured by a Scintillation Proximity Assay (SPA) to determine binding activity (IC50 μMol) and selectivity of binding of beta, delta, and gamma isoforms relative to alpha (Example 365). These values are expressed in Table 2.
Sequence of human PI3K isoform beta (p110 beta) (P42338 whole entry, canonical isoform): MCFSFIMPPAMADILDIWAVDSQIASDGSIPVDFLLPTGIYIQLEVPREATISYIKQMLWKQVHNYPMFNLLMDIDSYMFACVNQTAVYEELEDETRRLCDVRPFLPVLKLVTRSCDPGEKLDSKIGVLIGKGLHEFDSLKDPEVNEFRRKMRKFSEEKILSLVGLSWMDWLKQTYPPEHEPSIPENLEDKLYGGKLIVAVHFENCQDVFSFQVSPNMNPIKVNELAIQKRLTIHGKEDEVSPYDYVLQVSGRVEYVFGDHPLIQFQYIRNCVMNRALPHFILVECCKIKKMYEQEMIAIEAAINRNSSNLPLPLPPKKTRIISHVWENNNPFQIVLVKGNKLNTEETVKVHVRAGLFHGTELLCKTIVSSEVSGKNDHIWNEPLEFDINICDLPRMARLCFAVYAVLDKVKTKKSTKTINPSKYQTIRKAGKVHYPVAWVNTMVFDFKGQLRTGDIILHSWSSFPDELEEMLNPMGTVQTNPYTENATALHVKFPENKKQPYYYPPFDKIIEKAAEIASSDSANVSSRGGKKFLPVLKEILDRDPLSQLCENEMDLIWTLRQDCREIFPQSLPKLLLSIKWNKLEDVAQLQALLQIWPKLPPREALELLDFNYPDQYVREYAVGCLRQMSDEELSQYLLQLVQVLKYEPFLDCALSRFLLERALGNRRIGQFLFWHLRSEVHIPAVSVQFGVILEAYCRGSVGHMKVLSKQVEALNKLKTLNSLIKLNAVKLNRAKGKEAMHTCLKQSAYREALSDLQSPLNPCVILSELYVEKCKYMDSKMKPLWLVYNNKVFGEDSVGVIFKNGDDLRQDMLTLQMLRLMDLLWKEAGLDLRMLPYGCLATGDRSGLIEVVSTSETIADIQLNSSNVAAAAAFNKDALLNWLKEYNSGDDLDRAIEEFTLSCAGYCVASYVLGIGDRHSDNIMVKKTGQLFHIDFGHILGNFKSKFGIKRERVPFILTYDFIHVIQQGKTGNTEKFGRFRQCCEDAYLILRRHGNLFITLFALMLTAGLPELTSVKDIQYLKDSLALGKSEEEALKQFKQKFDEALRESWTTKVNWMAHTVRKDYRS
Sequence of human PI3K isoform beta (p110 beta) (P27986 whole entry partner, canonical isoform): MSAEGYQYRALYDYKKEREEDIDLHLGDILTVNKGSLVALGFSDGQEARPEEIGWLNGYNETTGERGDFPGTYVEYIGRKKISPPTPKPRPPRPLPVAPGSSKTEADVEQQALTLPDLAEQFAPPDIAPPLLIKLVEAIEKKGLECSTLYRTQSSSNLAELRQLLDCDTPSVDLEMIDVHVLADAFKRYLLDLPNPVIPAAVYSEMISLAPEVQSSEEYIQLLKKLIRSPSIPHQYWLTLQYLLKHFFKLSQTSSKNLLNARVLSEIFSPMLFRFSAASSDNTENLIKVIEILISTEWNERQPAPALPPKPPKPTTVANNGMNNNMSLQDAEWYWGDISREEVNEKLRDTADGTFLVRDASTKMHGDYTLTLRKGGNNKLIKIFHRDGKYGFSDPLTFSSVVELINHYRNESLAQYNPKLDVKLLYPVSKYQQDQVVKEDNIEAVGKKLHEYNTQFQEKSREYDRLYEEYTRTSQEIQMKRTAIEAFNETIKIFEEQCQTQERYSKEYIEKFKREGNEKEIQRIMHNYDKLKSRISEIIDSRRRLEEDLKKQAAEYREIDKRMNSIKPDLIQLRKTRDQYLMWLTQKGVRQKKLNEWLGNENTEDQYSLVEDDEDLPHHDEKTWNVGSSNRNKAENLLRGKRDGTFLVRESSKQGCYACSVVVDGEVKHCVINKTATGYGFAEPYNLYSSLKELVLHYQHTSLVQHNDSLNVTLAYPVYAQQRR
(§2) The ability of Formula Ia and Ib compounds from Tables 1a and 1b to inhibit the lipid kinase activity of purified preparations of human PI3K isoforms alpha, beta, delta, and gamma was determined by a radiometric scintillation proximity assay (SPA, GE Healthcare, Amersham Biosciences). Concentration dependent inhibition at 50% (IC50 μMol) was determined for all four isoforms […] and fold potency over beta, delta, and gamma relative to alpha was calculated for a selection of compounds in Table 2. Each compound has a p110 alpha IC50<1 μMol.

The target of series [2] is human PI3K isoform gamma (p110 gamma) (Homo sapiens, UniProt P48736). In words: p110 isoform selectivity scintillation proximity assay (SPA), gamma isoform. In kind it is biochemical. Conditions: fold potency over gamma relative to alpha, calculated from IC50 values (SPA). On the procedure:
as §1, §2

Series [3] addresses human PI3K isoform delta (p110 delta) (Homo sapiens, UniProt O00329). In words: p110 isoform selectivity scintillation proximity assay (SPA), delta isoform. In kind it is biochemical. Conditions: fold potency over delta relative to alpha, calculated from IC50 values (SPA). As for the experimental part:
as §1, §2

For series [4] the following is noted: cited from earlier work.
The conditions of series [5]: cited from earlier work. The source holds these as a separate data set.

Sequence of human PI3K isoform gamma (p110 gamma) (P48736 whole entry, canonical isoform): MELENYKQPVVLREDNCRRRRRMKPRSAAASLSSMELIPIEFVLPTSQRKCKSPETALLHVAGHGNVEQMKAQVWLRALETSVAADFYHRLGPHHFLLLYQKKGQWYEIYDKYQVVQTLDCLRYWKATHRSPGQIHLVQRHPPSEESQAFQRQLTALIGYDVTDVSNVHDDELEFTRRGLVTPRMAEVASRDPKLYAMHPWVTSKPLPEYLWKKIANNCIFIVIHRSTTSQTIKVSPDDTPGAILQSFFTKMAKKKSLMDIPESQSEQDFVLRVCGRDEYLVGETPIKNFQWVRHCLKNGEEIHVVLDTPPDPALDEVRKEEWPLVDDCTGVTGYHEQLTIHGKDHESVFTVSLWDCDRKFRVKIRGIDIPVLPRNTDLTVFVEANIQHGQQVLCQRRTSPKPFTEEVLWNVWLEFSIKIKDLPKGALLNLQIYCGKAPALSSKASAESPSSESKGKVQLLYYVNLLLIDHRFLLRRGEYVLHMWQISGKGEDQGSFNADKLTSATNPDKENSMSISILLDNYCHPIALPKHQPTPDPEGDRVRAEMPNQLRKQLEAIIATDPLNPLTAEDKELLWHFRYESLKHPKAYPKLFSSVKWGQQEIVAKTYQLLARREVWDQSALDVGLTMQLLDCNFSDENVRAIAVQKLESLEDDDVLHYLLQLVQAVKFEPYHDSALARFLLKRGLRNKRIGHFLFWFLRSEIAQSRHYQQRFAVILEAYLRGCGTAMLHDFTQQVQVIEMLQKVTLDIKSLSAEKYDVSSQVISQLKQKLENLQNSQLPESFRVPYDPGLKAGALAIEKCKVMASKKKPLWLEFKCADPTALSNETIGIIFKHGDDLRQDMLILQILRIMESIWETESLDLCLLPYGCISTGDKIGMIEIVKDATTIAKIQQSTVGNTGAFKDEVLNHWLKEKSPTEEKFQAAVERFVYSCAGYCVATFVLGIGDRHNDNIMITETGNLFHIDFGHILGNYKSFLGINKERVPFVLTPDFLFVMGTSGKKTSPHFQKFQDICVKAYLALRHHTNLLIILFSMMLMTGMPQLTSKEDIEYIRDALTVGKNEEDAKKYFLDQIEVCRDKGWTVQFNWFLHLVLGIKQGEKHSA
Sequence of human PI3K isoform delta (p110 delta) (O00329 whole entry, canonical isoform): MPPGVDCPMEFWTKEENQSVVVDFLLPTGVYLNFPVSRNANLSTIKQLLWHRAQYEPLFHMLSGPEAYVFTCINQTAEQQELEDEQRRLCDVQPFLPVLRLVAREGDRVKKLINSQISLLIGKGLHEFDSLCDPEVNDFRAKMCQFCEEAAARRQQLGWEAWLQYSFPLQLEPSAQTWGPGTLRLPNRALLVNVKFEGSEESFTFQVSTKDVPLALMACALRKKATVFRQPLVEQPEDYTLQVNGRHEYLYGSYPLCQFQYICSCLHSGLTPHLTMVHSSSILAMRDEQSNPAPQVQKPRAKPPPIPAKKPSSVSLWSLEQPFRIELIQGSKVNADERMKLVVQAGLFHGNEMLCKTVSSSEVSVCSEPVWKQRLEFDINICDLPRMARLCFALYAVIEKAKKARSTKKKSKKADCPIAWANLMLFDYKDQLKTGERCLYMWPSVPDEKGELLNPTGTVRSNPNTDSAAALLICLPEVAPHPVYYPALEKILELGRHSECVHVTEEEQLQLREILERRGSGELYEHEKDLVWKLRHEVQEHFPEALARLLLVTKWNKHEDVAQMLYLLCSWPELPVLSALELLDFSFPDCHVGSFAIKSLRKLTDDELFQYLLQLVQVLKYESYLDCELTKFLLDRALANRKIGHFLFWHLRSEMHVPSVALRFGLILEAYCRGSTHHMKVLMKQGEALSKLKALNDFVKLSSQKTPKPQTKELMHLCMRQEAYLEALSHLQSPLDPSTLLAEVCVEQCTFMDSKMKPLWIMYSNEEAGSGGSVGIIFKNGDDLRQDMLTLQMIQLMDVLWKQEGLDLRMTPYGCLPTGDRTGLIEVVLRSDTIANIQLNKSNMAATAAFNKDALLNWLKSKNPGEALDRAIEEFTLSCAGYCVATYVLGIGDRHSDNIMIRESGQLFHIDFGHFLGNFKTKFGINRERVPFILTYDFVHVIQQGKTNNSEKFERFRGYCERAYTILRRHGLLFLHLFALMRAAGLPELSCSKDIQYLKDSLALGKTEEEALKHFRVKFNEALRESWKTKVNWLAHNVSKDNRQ
Sequence of human PI3K isoform delta (p110 delta) (P27986 whole entry partner, canonical isoform): as the sequence (P27986 whole entry partner, canonical isoform) above

Regarding `COc1ccc(NCc2cc3nc(-c4cccc5[nH]ncc45)nc(N4CCOCC4)c3s2)cn1` [Compound 368, N-((2-(1H-indazol-4-yl)-4-morpholinothieno[3,2-d]pyrimidin-6-yl)methyl)-6-methoxypyridin-3-amine], the alpha/beta in series [1] was less than 10. In addition, the alpha/gamma in series [2] is greater than 10. Further, the alpha/delta in series [3] was less than 10.

On to `CC(C)(NC(=O)c1ccccc1)c1cc2nc(-c3cccc4[nH]ncc34)nc(N3CCOCC3)c2s1` [Compound 388, N-(2-(2-(1H-indazol-4-yl)-4-morpholinothieno[3,2-d]pyrimidin-6-yl)propan-2-yl)benzamide], for which the alpha/beta in series [1] is greater than 10. For the same compound, the alpha/gamma in series [2] is on record as greater than 10. Moreover, the alpha/delta in series [3] is reported as less than 10.

With `CN(Cc1cc2nc(-c3cccc4[nH]ncc34)nc(N3CCOCC3)c2s1)C(=O)c1ccccc1` [Compound 390, N-((2-(1H-indazol-4-yl)-4-morpholinothieno[3,2-d]pyrimidin-6-yl)methyl)-N-methylbenzamide], in series [1], the alpha/beta is recorded as less than 10. Also, the alpha/gamma in series [2] was less than 10. The alpha/delta in series [3] is listed as less than 10.

As to `Cc1c(-c2cccc(S(C)(=O)=O)c2)sc2c(N3CCOCC3)nc(-c3cnc4[nH]ccc4c3)nc12` [Compound 395, 7-methyl-6-(3-(methylsulfonyl)phenyl)-4-morpholino-2-(1H-pyrrolo[2,3-b]pyridin-5-yl)thieno[3,2-d]pyrimidine], the alpha/beta in series [1] is greater than 10. In addition, the alpha/gamma in series [2] is given as greater than 10. Besides, the alpha/delta in series [3] was greater than 10.

Take `CN(Cc1cc2c(N3CCOCC3)nc(-c3cnc4[nH]ccc4c3)nc2s1)S(C)(=O)=O` [Compound 417, N-methyl, N-methylsulfonyl(4-morpholino-2-(1H-pyrrolo[2,3-b]pyridin-5-yl)thieno[2,3-d]pyrimidin-6-yl)methanamine]: the alpha/beta in series [1] is on record as greater than 10. The alpha/gamma in series [2] is given as greater than 10. Moreover, the alpha/delta in series [3] is recorded as greater than 10.

Consider `CS(=O)(=O)c1cccc(-c2cc3nc(-c4cnc5[nH]ccc5c4)nc(N4CCOCC4)c3s2)c1` [Compound 418, 6-(3-(methylsulfonyl)phenyl)-4-morpholino-2-(1H-pyrrolo[2,3-b]pyridin-5-yl)thieno[3,2-d]pyrimidine], for which the alpha/beta in series [1] is greater than 10. Besides, in series [2], the alpha/gamma is given as greater than 10. Also, in series [3], the alpha/delta is on record as 10.

In the case of `CC(C)(O)c1cc2nc(-c3cnc4[nH]ccc4c3)nc(N3CCOCC3)c2s1` [Compound 422, 2-(4-morpholino-2-(1H-pyrrolo[2,3-b]pyridin-5-yl)thieno[3,2-d]pyrimidin-6-yl)-propan-2-ol], the alpha/beta in series [1] is reported as greater than 10. Further, the alpha/gamma in series [2] is greater than 10. Moreover, the alpha/delta in series [3] is less than 10.

On to `c1cc2cc(-c3nc(N4CCOCC4)c4sc(-c5ccc(N6CCOCC6)nc5)cc4n3)cnc2[nH]1` [Compound 428, 4-morpholino-6-(6-morpholinopyridin-3-yl)-2-(1H-pyrrolo[2,3-b]pyridin-5-yl)thieno[3,2-d]pyrimidine], for which the alpha/beta in series [1] was greater than 10. Also, the alpha/gamma in series [2] was greater than 10. In series [3], the alpha/delta was greater than 10.

`Nc1nc(-c2cc3nc(-c4cnc5[nH]ccc5c4)nc(N4CCOCC4)c3s2)cs1` [Compound 429, 4-(4-morpholino-2-(1H-pyrrolo[2,3-b]pyridin-5-yl)thieno[3,2-d]pyrimidin-6-yl)thiazol-2-amine]: the alpha/beta in series [1] was greater than 10. The alpha/gamma in series [2] is on record as greater than 10. Further, the alpha/delta in series [3] is greater than 10.

Take `O=c1cc(N2CCOCC2)oc2c(-c3ccccc3)cccc12` [LY294002, 2-(4-morpholinyl)-8-phenyl-4H-1-benzopyran-4-one]: the aqueous solubility result in series [4] is listed as “lack of aqueous solubility”. In addition, the metabolism in animals entry in series [5] (animals) was “rapidly metabolized in animals”. Further, the pharmacokinetics entry in series [5] (in vivo) was “poor pharmacokinetics”.
